Test results from the supplement of paper PMC10307832.

Tests used:
Assay in all cases: relative viability (nuclei count vs DMSO), 5 days (fraction); higher = more cells survive
[1] = compound: Cc1cc(Nc2cc(N3CCN(C)CC3)nc(Sc3ccc(NC(=O)C4CC4)cc3)n2)n[nH]1 [Tozasertib] + O=C(c1cc(Cc2n[nH]c(=O)c3ccccc23)ccc1F)N1CCN(C(=O)C2CC2)CC1 [Olaparib] (partner 8 µM)
Procedure, shortened: (§1)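 Each reported value is a median over duplicate plates. It expresses relative viability: treated-well nuclei count divided by vehicle-well nuclei count. Lung cancer cell lines in 1536-well plates were dosed by pin tool a day after seeding, alone with one drug or with a fixed anchor-drug dose plus five library-drug doses (not always all listed) in √10 steps, and nuclei were counted after 5 days.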

[2] = compound: Cc1cc(Nc2cc(N3CCN(C)CC3)nc(Sc3ccc(NC(=O)C4CC4)cc3)n2)n[nH]1 [Tozasertib] + COc1cc2c(Oc3ccc(NC(=O)C4(C(=O)Nc5ccc(F)cc5)CC4)cc3F)ccnc2cc1OCCCN1CCOCC1 [Foretinib] (partner 0.25 µM)
Procedure, shortened: as §1

[3] = compound: Cc1cc(Nc2cc(N3CCN(C)CC3)nc(Sc3ccc(NC(=O)C4CC4)cc3)n2)n[nH]1 [Tozasertib] + Cc1nc(Nc2ncc(C(=O)Nc3c(C)cccc3Cl)s2)cc(N2CCN(CCO)CC2)n1 [Dasatinib] (partner 0.075 µM)
Procedure, shortened: as §1

[4] = compound: Cc1cc(Nc2cc(N3CCN(C)CC3)nc(Sc3ccc(NC(=O)C4CC4)cc3)n2)n[nH]1 [Tozasertib] + CS(=O)(=O)CCNCc1ccc(-c2ccc3ncnc(Nc4ccc(OCc5cccc(F)c5)c(Cl)c4)c3c2)o1 [Lapatinib] (partner 2 µM)
Procedure, shortened: as §1

[5] = compound: Cc1cc(Nc2cc(N3CCN(C)CC3)nc(Sc3ccc(NC(=O)C4CC4)cc3)n2)n[nH]1 [Tozasertib] + O=C(CCCCCCC(=O)Nc1ccccc1)NO [Vorinostat] (partner 1 µM)
Procedure, shortened: as §1

Row | Cell Line | relative viability ([1]; first compound 0.004 µM) | relative viability ([1]; first compound 0.01265 µM) | relative viability ([1]; first compound 0.04 µM) | relative viability ([1]; first compound 0.1265 µM) | relative viability ([2]; first compound 0.004 µM) | relative viability ([2]; first compound 0.01265 µM) | relative viability ([2]; first compound 0.04 µM) | relative viability ([2]; first compound 0.1265 µM) | relative viability ([3]; first compound 0.004 µM) | relative viability ([3]; first compound 0.01265 µM) | relative viability ([3]; first compound 0.04 µM) | relative viability ([3]; first compound 0.1265 µM) | relative viability ([4]; first compound 0.004 µM) | relative viability ([4]; first compound 0.01265 µM) | relative viability ([4]; first compound 0.04 µM) | relative viability ([4]; first compound 0.1265 µM) | relative viability ([5]; first compound 0.004 µM) | relative viability ([5]; first compound 0.01265 µM) | relative viability ([5]; first compound 0.04 µM) | relative viability ([5]; first compound 0.1265 µM)
1 | LXF-289 | 1.08 | 0.942 | 0.792 | 0.644 | 1.06 | 0.963 | 0.912 | 0.739 | 0.226 | 0.198 | 0.232 | 0.0943 | 0.956 | 0.846 | 0.823 | 0.722 | 0.731 | 0.702 | 0.533 | 0.252
2 | NCI-H23 | 0.34 | 0.29 | 0.269 | 0.182 | 1.02 | 0.887 | 0.848 | 0.331 | 0.747 | 0.91 | 0.832 | 0.909 | 1.1 | 0.96 | 0.989 | 0.269 |  | 0.693 | 0.599 | 0.168
3 | NCI-H322M | 0.788 | 0.843 | 0.863 | 0.559 |  | 0.941 | 1.02 | 0.47 | 0.263 | 0.263 | 0.257 | 0.224 | 0.594 | 0.538 | 0.614 | 0.519 | 0.91 | 0.828 | 0.984 | 0.588
4 | NCI-H358 | 0.555 | 0.562 | 0.56 | 0.187 | 0.736 | 0.617 | 0.545 | 0.106 | 0.154 | 0.152 | 0.187 | 0.121 | 0.54 | 0.376 | 0.439 | 0.206 | 0.626 | 0.648 | 0.361 | 0.15
5 | NCI-H460 | 0.399 | 0.336 | 0.372 | 0.3 | 1.03 | 0.981 | 1.01 | 0.504 | 0.546 | 0.546 | 0.62 | 0.318 | 0.968 | 0.842 | 1.01 | 0.0247 | 0.83 | 0.769 | 0.912 | 0.163
6 | NCI-H520 | 0.285 | 0.316 |  | 0.272 | 0.872 | 0.602 | 0.923 | 0.608 | 0.265 | 0.203 | 0.209 | 0.138 | 0.868 | 0.816 | 0.775 | 0.214 | 0.814 | 0.747 | 0.575 | 0.224
7 | NCI-H596 | 0.605 | 0.769 | 0.732 | 0.525 | 0.827 | 0.916 | 0.864 | 0.766 | 0.555 | 0.589 | 0.645 | 0.53 | 1.17 | 1.07 | 1.11 | 0.49 | 0.655 | 0.538 | 0.72 | 0.451
8 | NCI-H647 | 0.744 | 0.445 | 0.501 | 0.369 | 1.24 | 1.28 | 1.34 |  | 0.204 | 0.185 | 0.181 | 0.0838 | 1.13 | 0.989 | 0.895 | 0.235 | 0.729 | 0.377 | 0.384 | 0.172
9 | NCI-H650 | 0.381 | 0.315 | 0.357 | 0.325 | 1.14 |  | 1.02 | 0.879 | 0.577 | 0.384 | 0.452 | 0.389 | 1.05 | 0.844 | 0.991 | 0.454 | 0.448 | 0.4 | 0.568 | 0.389
10 | NCI-H661 | 0.807 | 0.791 | 0.663 | 0.448 | 1.09 | 0.982 | 1.03 | 0.357 | 1.12 | 0.85 | 0.699 | 0.249 | 0.581 |  | 0.427 | 0.376 | 0.912 | 0.806 | 0.549 | 0.312
11 | NCI-H727 | 0.659 | 0.79 | 0.678 | 0.624 | 1.02 | 0.984 | 0.958 | 0.689 | 0.386 | 0.38 | 0.378 | 0.286 | 0.959 |  | 0.942 | 0.442 | 1.12 | 1.12 | 1.13 | 0.82
12 | NCI-H838 | 0.814 | 0.752 | 0.815 | 0.386 | 0.977 | 0.922 | 1.05 | 0.921 | 0.304 | 0.307 | 0.225 | 0.256 | 1.12 | 0.947 | 1.16 | 0.208 | 0.716 | 0.713 | 0.502 | 0.235
13 | NCI-H1355 | 0.748 | 0.694 | 0.689 | 0.545 | 0.942 | 0.926 | 0.901 | 0.853 | 0.691 | 0.706 | 0.843 | 0.49 | 0.934 | 1.02 | 0.987 | 0.791 | 0.594 | 0.571 | 0.669 | 0.516
14 | NCI-H1395 | 0.435 | 0.492 | 0.407 | 0.414 | 0.951 | 0.864 | 0.972 | 0.838 | 0.423 | 0.343 | 0.438 | 0.357 | 1.29 | 0.818 | 1.04 | 0.572 | 0.944 | 0.641 | 0.643 | 0.353
15 | NCI-H1437 | 0.66 | 0.58 | 0.595 | 0.541 | 1.22 | 1.25 | 1.2 | 1.19 | 0.453 | 0.254 | 0.372 | 0.434 | 0.782 | 0.74 | 0.759 | 0.329 | 0.851 | 0.792 | 0.769 | 0.481
16 | NCI-H1650 | 0.818 | 0.721 | 0.885 | 0.722 | 1.26 | 1.28 | 1.1 | 0.879 | 0.311 | 0.377 |  | 0.167 | 0.914 | 0.712 | 0.879 | 0.168 | 0.517 | 0.462 | 0.68 | 0.391
17 | NCI-H1651 | 0.189 | 0.158 | 0.173 | 0.167 | 0.694 | 0.773 | 0.856 | 0.87 | 0.433 | 0.371 |  | 0.234 | 0.973 | 0.806 |  | 0.392 | 0.603 | 0.56 |  | 0.361
18 | NCI-H1666 | 0.717 | 0.727 | 0.729 | 0.705 | 0.978 | 0.879 | 0.97 | 0.762 | 0.793 | 0.71 | 0.803 | 0.554 | 0.61 | 0.489 | 0.578 | 0.298 | 0.988 | 1.06 | 1 | 0.961
19 | NCI-H1734 | 0.734 | 0.577 | 0.66 | 0.374 | 0.888 |  | 0.824 | 0.414 | 0.422 | 0.444 | 0.452 | 0.314 | 1.06 |  |  | 0.497 | 0.711 | 0.741 | 0.649 | 0.245
20 | NCI-H1755 | 0.854 | 0.879 | 0.822 | 0.59 | 0.984 | 0.455 | 0.893 | 0.743 | 0.44 | 0.486 | 0.474 | 0.312 |  | 1.01 |  | 0.882 | 0.749 | 0.782 | 0.744 | 0.675
21 | NCI-H1793 | 0.918 | 0.778 | 0.974 | 0.533 |  | 0.56 | 0.596 | 0.389 | 0.387 | 0.36 | 0.377 | 0.285 | 0.699 | 0.598 | 0.573 | 0.364 | 0.785 | 0.654 | 0.931 | 0.267
22 | NCI-H1915 | 0.248 | 0.275 | 0.212 | 0.212 | 1.16 | 1.02 | 1.06 | 0.862 | 0.376 | 0.298 | 0.313 | 0.264 | 1.05 | 0.968 | 0.897 | 0.688 | 0.505 | 0.564 | 0.512 | 0.439
23 | NCI-H1944 | 0.406 | 0.38 | 0.398 | 0.287 | 0.876 | 0.753 | 0.72 | 0.459 | 0.217 | 0.217 | 0.206 | 0.147 | 0.869 | 0.728 | 0.772 | 0.339 | 0.557 | 0.519 | 0.427 | 0.204
24 | NCI-H1975 | 0.829 | 0.739 | 0.795 | 0.74 | 1 | 1.03 | 1.03 | 0.844 | 0.492 | 0.407 | 0.342 | 0.308 | 0.886 | 0.876 | 0.903 | 0.429 | 0.706 | 0.706 | 0.72 | 0.583
25 | NCI-H1993 | 0.998 | 1.05 | 0.897 | 0.722 | 0.944 | 0.732 | 0.848 | 0.726 | 0.729 | 0.456 | 0.636 | 0.537 | 0.804 | 0.82 | 0.829 | 0.772 | 0.754 | 0.824 | 1.11 | 0.408
26 | NCI-H2009 | 0.739 | 0.69 | 0.692 | 0.698 | 1.21 | 1.19 | 1.33 | 0.994 | 0.307 | 0.292 | 0.266 | 0.213 | 1.01 | 0.512 | 0.885 | 0.361 | 0.772 | 0.696 | 0.735 | 0.578
27 | NCI-H2023 | 0.486 | 0.459 | 0.553 | 0.342 | 0.747 | 0.968 | 0.94 | 0.652 | 0.562 | 0.506 | 0.572 | 0.318 | 0.796 | 1.01 | 0.947 | 0.123 | 0.547 | 0.674 | 0.518 | 0.16
